Earlier results as cited in PMC11859340, “The Therapeutic Potential of Spirooxindoles in Cancer: A Focus on p53–MDM2 Modulation” (Pharmaceuticals, 2025).
Where two headings read alike, the source gives them in different places.

Columns and labels:
[1] = system: HCT116 (p53^−/−); set-up: method as in PMID 24268795; conditions: read-out: GI50 against HCT116 (p53^−/−)
[2] = system: HepG2 (hepatocellular wild p53 type); set-up: method as in PMID 24268795; conditions: read-out: GI50 against HepG2
[3] = system: HCT116 (p53^+/+); set-up: method as in PMID 24268795; conditions: read-out: GI50 against HCT116 (p53^+/+)
[4] = system: SW620 (mutant p53); set-up: method as in PMID 24268795; conditions: read-out: GI50 against SW620
[5] = system: LNCaP (p53+); set-up: method as in PMID 30735387; conditions: MTT; read-out: IC50 against LNCaP (p53+)
[6] = system: PC-3 (p53−); set-up: method as in PMID 30735387; conditions: MTT; read-out: IC50 against PC-3 (p53−)
[7] = system: tumor growth; set-up: method as in PMID 25618595; conditions: 20 mg/kg body weight over 14 days
[8] = system: VERO; set-up: method as in PMID 25618595; conditions: monkey kidney normal cell line; read-out: IC50 against VERO
[9] = system: MCF7; set-up: method as in PMID 25618595; conditions: MTT; read-out: IC50 against MCF7
[10] = system: HEK-293; set-up: method as in PMID 25618595; conditions: human kidney normal cell line; read-out: IC50 against HEK-293
[11] = system: MD-MB-231; set-up: method as in PMID 25618595; conditions: MTT; read-out: IC50 against MD-MB-231
[12] = system: HepG-2 (liver); set-up: method as in PMID 34970530; conditions: MTT; read-out: IC50 against HepG-2
[13] = system: MDA-MB231 (breast); set-up: method as in PMID 34970530; conditions: MTT; read-out: IC50 against MDA-MB231
[14] = system: Caco-2 (colon); set-up: method as in PMID 34970530; conditions: MTT; read-out: IC50 against Caco-2
[15] = system: MCF7 (breast); set-up: method as in PMID 26256638; conditions: MTT; read-out: IC50 against MCF7
[16] = system: PC3; set-up: method as in doi:10.3390/separations10040225; conditions: MTT; read-out: IC50 against PC3
[17] = system: MDA-MB-231; set-up: method as in doi:10.3390/separations10040225; conditions: MTT; read-out: IC50 against MDA-MB-231
[18] = molecular target: MDM2; set-up: method as in doi:10.3390/separations10040225; conditions: MST; read-out: KD, MST binding affinity for MDM2
[19] = system: HCT116^+/+; set-up: method as in PMID 34946727; conditions: MTT; read-out: CC50 against HCT116^+/+
[20] = system: HCT116^−/−; set-up: method as in PMID 34946727; conditions: MTT; read-out: CC50 against HCT116^−/−
[21] = system: HCT116 p53^+/+; set-up: method as in PMID 28800455; conditions: read-out: IC50 against HCT116 p53^+/+
[22] = system: HCT116 p53^−/−; set-up: method as in PMID 28800455; conditions: read-out: IC50 against HCT116 p53^−/−
[23] = system: MCF7 “wild p53”; set-up: method as in PMID 37731691; conditions: MTT; read-out: IC50 against MCF7
[24] = system: MDA-MB-231 “mutant p53”; set-up: method as in PMID 37731691; conditions: MTT; read-out: IC50 against MDA-MB-231
[25] = system: MCF 10A; set-up: method as in PMID 37731691; conditions: MTT; read-out: IC50 against MCF 10A
[26] = system: SW620 (colon, mutant p53); set-up: method as in doi:10.1039/C5MD00450K; conditions: read-out: GI50 against SW620
[27] = system: HCT116 (p53^+/+); set-up: method as in doi:10.1039/C5MD00450K; conditions: read-out: GI50 against HCT116 (p53^+/+)
[28] = system: HCT116 (p53^−/−); set-up: method as in doi:10.1039/C5MD00450K; conditions: read-out: GI50 against HCT116 (p53^−/−)
[29] = system: HepG2 (liver, wild p53 type); set-up: method as in doi:10.1039/C5MD00450K; conditions: read-out: GI50 against HepG2
[30] = system: A549 (lung); set-up: method as in PMID 26883465; conditions: MTT; read-out: IC50 against A549
[31] = system: HCT116 (colon); set-up: method as in PMID 26883465; conditions: MTT; read-out: IC50 against HCT116
[32] = system: MDA-MB-231 (breast); set-up: method as in PMID 26883465; conditions: MTT; read-out: IC50 against MDA-MB-231
[33] = system: MCF7 (breast); set-up: method as in PMID 28797774; conditions: CCK-8; read-out: IC50 against MCF7
[34] = system: A549 (lung); set-up: method as in PMID 28797774; conditions: CCK-8; read-out: IC50 against A549
[35] = system: HCT116 (colon); set-up: method as in PMID 28797774; conditions: CCK-8; read-out: IC50 against HCT116
[36] = system: neuroblastoma; set-up: method as in PMID 29416773; conditions: oral 50 mg/kg body weight for 50 days, 4 days on and 2 days off
[37] = system: osteosarcoma, acute leukemia, prostate, colon, and dedifferentiated liposarcoma cancers; conditions: mouse xenograft models
[38] = system: PC3 (prostate); set-up: method as in PMID 36174446; conditions: MTT; read-out: IC50 against PC3
[39] = system: HCT-116 (colon); set-up: method as in PMID 36174446; conditions: MTT; read-out: IC50 against HCT-116
[40] = system: A549 (lung); set-up: method as in PMID 36174446; conditions: MTT; read-out: IC50 against A549
[41] = system: MDA-MB-231 (breast); set-up: method as in PMID 36174446; conditions: MTT; read-out: IC50 against MDA-MB-231
[42] = molecular target: MDM2; set-up: method as in PMID 36174446; conditions: read-out: KD against MDM2
[43] = system: p53; set-up: method as in PMID 37175323; conditions: 22Rv1 and LNCaP, dose-dependent
[44] = system: MDM2; set-up: method as in PMID 37175323; conditions: induction of protein degradation
[45] = system: lung A549; set-up: method as in PMID 31047751; conditions: CCK-8
[46] = system: MCF7 (breast); set-up: method as in PMID 29302672; conditions: at 10 μM, CCK-8
[47] = system: colon HCT116; set-up: method as in PMID 31047751; conditions: at 10 μM, CCK-8
[48] = system: A549 (lung); set-up: method as in PMID 29302672; conditions: at 10 μM, CCK-8
[49] = system: HCT116 (colon); set-up: method as in PMID 29302672; conditions: at 10 μM, CCK-8
[50] = system: breast MCF7; set-up: method as in PMID 31047751; conditions: CCK-8

Cc1ccc(C2=NO[C@@]3(C(=O)Nc4cc(Cl)ccc43)[C@@H]2c2ccccc2)cc1
GI50 [1]: 30.6 ± 1.12 µM
GI50 [2]: 29.1 ± 1.09 µM
GI50 [3]: 26.6 ± 1.07 µM
GI50 [4]: 31.6 ± 1.05 µM

COC(=O)C1([N+](=O)[O-])C[C@@H](c2ccccc2)N(c2ccccc2)[C@]12C(=O)Nc1ccccc12 (some centres unmarked)
IC50 [5]: 6.2 to 7.9 µM
IC50 [6]: 6.8 to 8.5 µM

O=C(c1ccc(OCCN2CCCCC2)cc1)C1[C@H](c2ccccc2)[C@@H](c2ccccc2)NC12C(=O)Nc1ccc(Cl)cc12 (some centres unmarked)
tumor growth compared to the untreated control group [7]: reduction in tumor growth
IC50 [8]: > 50 µM
IC50 [9]: 6.5 µM
IC50 [10]: > 50 µM
IC50 [11]: 3.7 µM

O=c1[nH]cc(F)c(=O)[nH]1 [5-fluorouracil]
IC50 [12]: 4.83 ± 0.296 µM
IC50 [13]: 7.05 ± 0.204 µM
IC50 [14]: 1.05 ± 0.156 µM
IC50 [15]: 10.5 ± 1.6 µM

O=C(c1nc2ccccc2[nH]1)[C@H]1[C@H](c2ccc(Cl)cc2)C2CC3CCCCC3N2[C@]12C(=O)Nc1ccc(Cl)cc12 (some centres unmarked) [39 (R = 4-ClC6H4)]
IC50 [16]: 4.574 ± 0.011 µM
IC50 [17]: 4.76 ± 0.069 µM
Kd [18]: 2.38 µM

COc1ccc(N2C(=O)[C@@]3(CN(C)C[C@@]34C(=O)Nc3ccc(Cl)cc34)NC2=S)cc1 [84 (X = S, R = Cl, R’ = 4-MeOC6H4)]
CC50 [19]: 1.95 ± 0.43 µM
CC50 [20]: 2.35 ± 0.95 µM

O=C1Nc2ccc(Br)cc2[C@]12[C@@H](c1ccccc1)C(c1ccccc1)=NN2c1ccccc1 [97 (R = 5-Br, R^1 = R^3 = H, R^2 = Ph)]
IC50 [21]: 13.1 ± 1 µM
IC50 [22]: 14.2 ± 0.8 µM

O=C1C=CC(OCc2cn(CCN3C(=O)[C@]4(c5ccc(Br)cc53)[C@@H](c3ccccc3)C(c3ccccc3)=NN4c3ccccc3)nn2)(c2cc(=O)c3c(O)cc(O)cc3o2)C=C1 [105 (X = (CH2)2)]
IC50 [23]: 2.92 µM
IC50 [24]: 1.08 µM
IC50 [25]: 4.56 µM

O=C1Nc2ccc(Br)cc2[C@]12ON=C(c1cccc(Cl)c1)N2c1cccc(Cl)c1 [110 (R^1 = 5-Br, R^2 = 3-Cl, R^3 = 3-Cl)]
GI50 [26]: 2.1 ± 0.3 µM
GI50 [27]: 2 µM
GI50 [28]: 2.9 ± 0.2 µM
GI50 [29]: 2.1 µM

COC(=O)C[C@@H]1CS[C@]2(C(=O)Nc3cccc(Br)c32)[C@H](c2ccc(Br)cc2)[C@H]1C=O [136 (R = 4-Br, R’ = 4-BrC6H4)]
IC50 [30]: 1.67 µM
IC50 [31]: 1.57 µM
IC50 [32]: 3.55 µM

CCN(CC)c1ccc(N2C[C@H]3[C@@H](CS[C@]4(C(=O)Nc5cccc(Br)c54)[C@@H]3c3ccc(Br)cc3)CC2=O)cc1 [143 (R = 4-(4-diethylamino)C6H4)]
IC50 [33]: 2.4 ± 0.1 µM
IC50 [34]: 2.9 ± 0.2 µM
IC50 [35]: 1.8 ± 0.5 µM

CC1(C)CCC2(CC1)N[C@@H](C(=O)N[C@@H]1CC[C@@H](C(N)=O)OC1)[C@H](c1ccnc(Cl)c1F)[C@]21C(=O)Nc2cc(Cl)ccc21 [Milademetan]
tumor growth and survival [36]: tumor growth inhibition and extended survival

CC(C)(C)C[C@@H]1N[C@@H](C(=O)N[C@H]2CC[C@H](O)CC2)[C@H](c2cccc(Cl)c2F)[C@]12C(=O)Nc1cc(Cl)ccc12 [SAR405838]
cancer inhibition [37]: recognizable or complete cancer inhibition

O=C(c1nc2ccccc2[nH]1)[C@H]1[C@H](c2ccccc2)C2CC3CCCCC3N2[C@]12C(=O)Nc1ccc(Cl)cc12 (some centres unmarked) [compound 38]
IC50 [38]: 3.4 ± 0.3 µM
IC50 [39]: 7.2 ± 0.3 µM
IC50 [40]: 7.8 ± 0.3 µM
IC50 [41]: 2.4 ± 0.2 µM
Kd [42]: 7.94 µM

COc1cc(C(N)=O)ccc1NC(=O)[C@H]1[C@H](c2cccc(Cl)c2F)C2(C(=O)Nc3cc(Cl)ccc32)[C@H](CC(C)(C)C)N1C(=O)OCCOCCOCCOCCOC(=O)N1[C@@H](CC(C)(C)C)[C@@]2(C(=O)Nc3cc(Cl)ccc32)[C@@H](c2cccc(Cl)c2F)[C@@H]1C(=O)Nc1ccc(C(N)=O)cc1OC (some centres unmarked) [compound 44]
p53 levels [43]: increase in p53 levels
MDM2 level [44]: Downregulation of MDM2

COc1ccc(C2=N[C@@H](c3ccc(Cl)cc3)[C@@H](c3ccc(Cl)cc3)N2C(=O)N2CCNC(=O)C2)c(OC(C)C)c1 [nutlin-3, reference compound]
GI50 [1]: 52.3 ± 1.15 µM
IC50 [33]: 28.4 ± 2.5 µM
IC50 [34]: 10 ± 0.8 µM
IC50 ([45]; read-out: IC50 against A549): 2.4 µM
% inhibition, A549 ([45]; at 10 μM): 47.0%
% inhibition, MCF7 [46]: 33.1%
GI50 [2]: 51.3 ± 1.04 µM
IC50 [30]: 2.22 µM
IC50 [35]: 14.9 ± 0.6 µM
% inhibition, HCT116 [47]: 64.4%
% inhibition, A549 [48]: 42.9%
IC50 [31]: 1.16 µM
IC50 [9]: 11.6 µM
% inhibition, HCT116 [49]: 42.9%
IC50 ([50]; read-out: IC50 against MCF7): 12.1 µM
% inhibition, MCF7 ([50]; at 10 μM): 32.8%
IC50 [32]: 4.68 µM
IC50 [11]: 23.5 µM
